Source: patent publication US20170119824A1, “A METHOD FOR THE TREATMENT OF GLIOBLASTOMA WITH WHARTON JELLY-MESENCHYMAL STEM CELLS (WJ-MSC) DERIVED FROM HUMAN UMBILICAL CORD” (priority 2014, published 2017)

System: glioblastoma tumor sample collected from patient
Test: Oncoprint explant tumor culture model, drug sensitivity test with H&E, Ki67 and caspase staining
Assay type: cell-based, human
Conditions: glioma tumor samples in vitro, explant culture in artificial tumor microenvironment
From the text: According to one embodiment herein, Ocoprint® an explants tumor culture model to identify the anti-tumor effect of commonly used chemotherapeutics agents as well as Wharton's jelly derived mesenchymal stem cells on gliomas samples. In the laboratory, a tumor microenvironment similar to the body or physiological environment is created artificially in a dish. The tumor sample collected from patient is placed in this micro-environment in dish. Different anticancer agents including the mesenchymal stem cells derived from umbilical cord are applied on the tumor in the micro-environment. This mimics the application of these anti-cancer agents against the tumor when the tumor is in the human body. Simultaneously a control sample is maintained without any treatment or application of anti-cancer agents. After a specific treatment time or incubation the tumor samples are collected from the microenvironment and are subjected to a set of laboratory tests. […] The tests also reveal that the anti-cancer agents are able to kill tumor cells, reduce the number of tumor cells or limit the growth of tumor cells or the anti-cancer agent is converting the aggressively growing tumor cells to a programmed cell death mode.
The tests which are applied for testing effect of anti-cancer agents on the tumor are 1) Hematoxylin and eosin staining (H & E staining), 2) Ki67 is staining and 3) Caspase staining.
The Ki67 staining indicates the growth pattern of tumor cells.
According to one embodiment herein, Ocoprint® an explants tumor culture model to identify the anti-tumor effect of commonly used chemotherapeutics agents as well as Wharton's jelly derived mesenchymal stem cells on glioma's samples. In the laboratory, a tumor microenvironment similar to the body or physiological environment is created artificially in a dish. The tumor sample collected from the patient is placed in this micro-environment in dish. Different anticancer agents including the mesenchymal stem cells derived from umbilical cord are applied on the tumor in the micro-environment. […]

Molecule	Oncoprint sensitivity report: response of glioma samples (responders / non-responders)
Avastin: anti-cancer agent applied to the glioblastoma tumor	responded
O=C1CCC(N2C(=O)c3ccccc3C2=O)C(=O)N1 (stereo not drawn) [Thalidomide]	responded
CNC(=O)c1cc(Oc2ccc(NC(=O)Nc3ccc(Cl)c(C(F)(F)F)c3)cc2)ccn1 [sorafenib]	have not responded
